Experimental data from patent US11401555B2, “Genetic polymorphisms associated with stroke, methods of detection and uses thereof” (CELERA CORPORATION, priority 2008, dated 2022).

Assays:
[1] = Stroke statin response (SSR) in the CARE pravastatin trial: pravastatin-treated versus placebo-treated, by SNP genotype; format: in vivo, human; details: for EVENTS: stroke events in pravastatin arm
[2] = Stroke statin response (SSR) in the PROSPER pravastatin trial: pravastatin-treated versus placebo-treated, by SNP genotype; format: in vivo, human

Structure (SMILES): CC[C@H](C)C(=O)O[C@H]1C[C@H](O)C=C2C=C[C@H](C)[C@H](CC[C@@H](O)C[C@@H](O)CC(=O)O)[C@H]21 [pravastatin]
- EVENTS ([1]; CARE, rs3213646 EXOD1, GEN, genotype CC, TOTAL 417): 27
- EVENTS ([1]; CARE, rs3213646 EXOD1, GEN, genotype CT, TOTAL 691): 24
- EVENTS ([1]; CARE, rs3213646 EXOD1, GEN, genotype TT, TOTAL 245): 13
- EVENTS ([1]; CARE, rs3213646 EXOD1, REC, genotype CT + TT, TOTAL 936): 37
- EVENTS ([1]; CARE, rs3900940 MYH15, DOM, genotype CT + CC, TOTAL 721): 36
- EVENTS ([1]; CARE, rs3900940 MYH15, GEN, genotype CC, TOTAL 160): 13
- EVENTS ([1]; CARE, rs3900940 MYH15, GEN, genotype CT, TOTAL 561): 23
- EVENTS ([1]; CARE, rs3900940 MYH15, GEN, genotype TT, TOTAL 620): 30
- EVENTS ([1]; CARE, rs3900940 MYH15, REC, genotype CT + TT, TOTAL 1181): 53
- HR ([1]; pravastatin vs placebo, ENDPT4F1, hCV1463226 rs10890 FXN, GEN, genotype CC): 0.48
- HR ([1]; pravastatin vs placebo, ENDPT4F1, hCV1463226 rs10890 FXN, GEN, genotype TT): 0.41
- HR ([1]; pravastatin vs placebo, ENDPT4F1, hCV1846459 rs4803759, GEN, genotype CC): 0.66
- HR ([1]; pravastatin vs placebo, ENDPT4F1, hCV1846459 rs4803759, GEN, genotype TC): 0.62
- HR ([1]; pravastatin vs placebo, ENDPT4F1, hCV1846459 rs4803759, REC, genotype TC + CC): 0.64
- HR ([1]; pravastatin vs placebo, ENDPT4F1, hCV2442143 rs12544854 ASAH1, DOM, genotype TC + TT, first listing (TOTAL 1070)): 0.57
- HR ([1]; pravastatin vs placebo, ENDPT4F1, hCV2442143 rs12544854 ASAH1, DOM, genotype TC + TT, second listing (TOTAL 1059)): 0.56
- HR ([1]; pravastatin vs placebo, ENDPT4F1, hCV2442143 rs12544854 ASAH1, GEN, genotype TC, first listing (TOTAL 713)): 0.55
- HR ([1]; pravastatin vs placebo, ENDPT4F1, hCV2442143 rs12544854 ASAH1, GEN, genotype TC, second listing (TOTAL 704)): 0.57
- HR ([1]; pravastatin vs placebo, ENDPT4F1, hCV2741051 rs2230806 ABCA1, DOM, genotype TC + TT, first listing (TOTAL 709)): 0.47
- HR ([1]; pravastatin vs placebo, ENDPT4F1, hCV2741051 rs2230806 ABCA1, DOM, genotype TC + TT, second listing (TOTAL 711)): 0.47
- HR ([1]; pravastatin vs placebo, ENDPT4F1, hCV2741051 rs2230806 ABCA1, GEN, genotype TC, first listing (TOTAL 597)): 0.47
- HR ([1]; pravastatin vs placebo, ENDPT4F1, hCV2741051 rs2230806 ABCA1, GEN, genotype TC, second listing (TOTAL 603)): 0.5
- HR ([1]; pravastatin vs placebo, ENDPT4F1, hCV2862873 rs780094 GCKR, DOM, genotype TC + TT): 0.6
- HR ([1]; pravastatin vs placebo, ENDPT4F1, hCV2959482 rs3890182 ABCA1, DOM, genotype AG + AA): 0.34
- HR ([1]; pravastatin vs placebo, ENDPT4F1, hCV2959482 rs3890182 ABCA1, GEN, genotype AG): 0.34
- HR ([1]; pravastatin vs placebo, ENDPT4F1, hCV3216551 rs562338, GEN, genotype GG): 0.59
- HR ([1]; pravastatin vs placebo, ENDPT4F1, hCV8757333 rs1800588 LIPC, DOM, genotype TC + TT): 0.49
- HR ([1]; pravastatin vs placebo, ENDPT4F1, hCV8942032 rs1264352 DDR1, DOM, genotype CG + CC, risk allele C): 0.41
- HR ([1]; pravastatin vs placebo, ENDPT4F1, hCV9296529 rs4358307, GEN, genotype GA): 0.5
- HR ([1]; pravastatin vs placebo, ENDPT4F1, hCV9324316 rs9305020, GEN, genotype TT): 0.7
- HR ([1]; pravastatin vs placebo, ENDPT4F1, hCV9324316 rs9305020, REC, genotype CT + TT): 0.76
- HR ([1]; pravastatin vs placebo, ENDPT4F1, hCV9473891 rs1555173, REC, genotype CT + TT): 0.75
- HR ([1]; pravastatin vs placebo, ENDPT4F1, hCV16164743 rs2928932, GEN, genotype AA): 0.6
- HR ([1]; pravastatin vs placebo, ENDPT4F1, hCV16164743 rs2928932, GEN, genotype CC): 0.31
- HR ([1]; pravastatin vs placebo, ENDPT4F1, hCV22275299 rs28927680 BUD13, GEN, genotype GC): 0.2
- HR ([1]; pravastatin vs placebo, ENDPT4F1, hCV26682080 rs4420638, DOM, genotype GA + GG): 0.45
- HR ([1]; pravastatin vs placebo, ENDPT4F1, hCV26682080 rs4420638, GEN, genotype GA): 0.5
- HR ([1]; pravastatin vs placebo, ENDPT4F1, hCV26682080 rs4420638, GEN, genotype GG): 0.25
- HR ([1]; pravastatin vs placebo, ENDPT4F1, hCV29480044 rs10516433 TSPAN5, GEN, genotype TC): 0.46
- HR ([1]; pravastatin vs placebo, ENDPT4F1, hCV29480044 rs10516433 TSPAN5, REC, genotype TC + CC): 0.67
- HR ([1]; pravastatin vs placebo, ENDPT4F1, hCV29566897 rs10507755, REC, genotype CT + TT): 0.76
- HR ([1]; pravastatin vs placebo, ENDPT4F1, hCV30454150 rs10516434 TSPAN5, GEN, genotype TC): 0.46
- HR ([1]; pravastatin vs placebo, ENDPT4F1, hCV30454150 rs10516434 TSPAN5, REC, genotype TC + CC): 0.67
- HR ([1]; pravastatin vs placebo, ENDPT4F1, hDV77718013, REC, genotype TC + CC): 0.74
- HR ([1]; rs1048621 (hCV1619596, SDCBP2), ALL, genotype AA, MODE GEN, ENDPT4F1, pravastatin vs placebo, CARE): 0.16
- HR ([1]; rs1048621 (hCV1619596, SDCBP2), ALL, genotype AG + AA, MODE DOM, ENDPT4F1, pravastatin vs placebo, CARE): 0.69
- HR ([1]; rs1048621 (hCV1619596, SDCBP2), ALL, genotype AG + GG, MODE REC, ENDPT4F1, pravastatin vs placebo, CARE): 0.82
- HR ([1]; rs1048621 (hCV1619596, SDCBP2), ALL, genotype AG, MODE GEN, ENDPT4F1, pravastatin vs placebo, CARE): 0.89
- HR ([1]; rs1048621 (hCV1619596, SDCBP2), ALL, genotype GG, MODE GEN, ENDPT4F1, pravastatin vs placebo, CARE): 0.77
- HR ([1]; rs1264352 (hCV8942032, DDR1), genotype CC, MODE GEN, ENDPT4F1, pravastatin vs placebo, CARE): 0.86
- HR ([1]; rs1264352 (hCV8942032, DDR1), genotype CG + CC, MODE DOM, ENDPT4F1, pravastatin vs placebo, CARE): 0.41
- HR ([1]; rs1264352 (hCV8942032, DDR1), genotype CG + GG, MODE REC, ENDPT4F1, pravastatin vs placebo, CARE): 0.73
- HR ([1]; rs1264352 (hCV8942032, DDR1), genotype CG, MODE GEN, ENDPT4F1, pravastatin vs placebo, CARE): 0.39
- HR ([1]; rs1264352 (hCV8942032, DDR1), genotype GG, MODE GEN, ENDPT4F1, pravastatin vs placebo, CARE): 0.84
- HR ([1]; rs2857595 (hCV16134786), ALL, genotype AA, MODE GEN, ENDPT4F1, pravastatin vs placebo, CARE): 0.23
- HR ([1]; rs2857595 (hCV16134786), ALL, genotype AG + AA, MODE DOM, ENDPT4F1, pravastatin vs placebo, CARE): 0.58
- HR ([1]; rs2857595 (hCV16134786), ALL, genotype AG + GG, MODE REC, ENDPT4F1, pravastatin vs placebo, CARE): 0.77
- HR ([1]; rs2857595 (hCV16134786), ALL, genotype AG, MODE GEN, ENDPT4F1, pravastatin vs placebo, CARE): 0.67
- HR ([1]; rs2857595 (hCV16134786), ALL, genotype GG, MODE GEN, ENDPT4F1, pravastatin vs placebo, CARE): 0.8
- HR ([1]; rs11079160 (hCV32160712), ALL, genotype AA, MODE GEN, ENDPT4F1, pravastatin vs placebo, CARE): 0.86
- HR ([1]; rs11079160 (hCV32160712), ALL, genotype TA + AA, MODE REC, ENDPT4F1, pravastatin vs placebo, CARE): 0.78
- HR ([1]; rs11079160 (hCV32160712), ALL, genotype TA + TT, MODE DOM, ENDPT4F1, pravastatin vs placebo, CARE): 0.55
- HR ([1]; rs11079160 (hCV32160712), ALL, genotype TA, MODE GEN, ENDPT4F1, pravastatin vs placebo, CARE): 0.62
- HR ([1]; rs11079160 (hCV32160712), ALL, genotype TT, MODE GEN, ENDPT4F1, pravastatin vs placebo, CARE): 0.24
- HR ([1]; rs12762303 (hCV27830265, ALOX5), genotype AA, MODE GEN, ENDPT4F1, pravastatin vs placebo, CARE, first listing (TOTAL 1005)): 0.84
- HR ([1]; rs12762303 (hCV27830265, ALOX5), genotype AA, MODE GEN, ENDPT4F1, pravastatin vs placebo, CARE, second listing (TOTAL 1002)): 0.85
- HR ([1]; rs12762303 (hCV27830265, ALOX5), genotype GA + AA, MODE REC, ENDPT4F1, pravastatin vs placebo, CARE, first listing (TOTAL 1381)): 0.73
- HR ([1]; rs12762303 (hCV27830265, ALOX5), genotype GA + AA, MODE REC, ENDPT4F1, pravastatin vs placebo, CARE, second listing (TOTAL 1377)): 0.73
- HR ([1]; rs12762303 (hCV27830265, ALOX5), genotype GA + GG, MODE DOM, ENDPT4F1, pravastatin vs placebo, CARE, first listing (TOTAL 399)): 0.46
- HR ([1]; rs12762303 (hCV27830265, ALOX5), genotype GA + GG, MODE DOM, ENDPT4F1, pravastatin vs placebo, CARE, second listing (TOTAL 398)): 0.46
- HR ([1]; rs12762303 (hCV27830265, ALOX5), genotype GA, MODE GEN, ENDPT4F1, pravastatin vs placebo, CARE, first listing (TOTAL 376)): 0.47
- HR ([1]; rs12762303 (hCV27830265, ALOX5), genotype GA, MODE GEN, ENDPT4F1, pravastatin vs placebo, CARE, second listing (TOTAL 375)): 0.47
- HR ([1]; rs12762303 (hCV27830265, ALOX5), genotype GG, MODE GEN, ENDPT4F1, pravastatin vs placebo, CARE, first listing (TOTAL 23)): 0
- HR ([1]; rs12762303 (hCV27830265, ALOX5), genotype GG, MODE GEN, ENDPT4F1, pravastatin vs placebo, CARE, second listing (TOTAL 23)): 0
- HR_RESP (hazard ratio, pravastatin-treated versus placebo-treated) ([2]; hCV2091644 rs1010 VAMP8, GENO_RESP CC + CT, MODE DOM, STRATA no hist): 0.786
- HR_RESP (hazard ratio, pravastatin-treated versus placebo-treated) ([2]; hCV2169762 rs1804689 HPS1, GENO_RESP GG + GT, MODE REC, STRATA hist): 1.028
- HR_RESP (hazard ratio, pravastatin-treated versus placebo-treated) ([2]; hCV2169762 rs1804689 HPS1, GENO_RESP TT + GT, MODE DOM, STRATA no hist): 1.266
- EVENTS_RESP ([2]; hCV2169762 rs1804689 HPS1, GENO_RESP TT, MODE GEN, STRATA hist): 5
- HR_RESP (hazard ratio, pravastatin-treated versus placebo-treated) ([2]; hCV29539757 rs10110659 KCNQ3, GENO_RESP CC + AC, MODE REC, STRATA hist): 1.009
